Biological target: ATP-dependent translocase ABCB1 (Homo sapiens, UniProt P08183)
Assay: TP_TRANSPORTER: drug resistance (vinblastine) in NCI/ADRRes cells
Assay type: functional, cell-based

Sequence of ATP-dependent translocase ABCB1 (P08183 whole entry): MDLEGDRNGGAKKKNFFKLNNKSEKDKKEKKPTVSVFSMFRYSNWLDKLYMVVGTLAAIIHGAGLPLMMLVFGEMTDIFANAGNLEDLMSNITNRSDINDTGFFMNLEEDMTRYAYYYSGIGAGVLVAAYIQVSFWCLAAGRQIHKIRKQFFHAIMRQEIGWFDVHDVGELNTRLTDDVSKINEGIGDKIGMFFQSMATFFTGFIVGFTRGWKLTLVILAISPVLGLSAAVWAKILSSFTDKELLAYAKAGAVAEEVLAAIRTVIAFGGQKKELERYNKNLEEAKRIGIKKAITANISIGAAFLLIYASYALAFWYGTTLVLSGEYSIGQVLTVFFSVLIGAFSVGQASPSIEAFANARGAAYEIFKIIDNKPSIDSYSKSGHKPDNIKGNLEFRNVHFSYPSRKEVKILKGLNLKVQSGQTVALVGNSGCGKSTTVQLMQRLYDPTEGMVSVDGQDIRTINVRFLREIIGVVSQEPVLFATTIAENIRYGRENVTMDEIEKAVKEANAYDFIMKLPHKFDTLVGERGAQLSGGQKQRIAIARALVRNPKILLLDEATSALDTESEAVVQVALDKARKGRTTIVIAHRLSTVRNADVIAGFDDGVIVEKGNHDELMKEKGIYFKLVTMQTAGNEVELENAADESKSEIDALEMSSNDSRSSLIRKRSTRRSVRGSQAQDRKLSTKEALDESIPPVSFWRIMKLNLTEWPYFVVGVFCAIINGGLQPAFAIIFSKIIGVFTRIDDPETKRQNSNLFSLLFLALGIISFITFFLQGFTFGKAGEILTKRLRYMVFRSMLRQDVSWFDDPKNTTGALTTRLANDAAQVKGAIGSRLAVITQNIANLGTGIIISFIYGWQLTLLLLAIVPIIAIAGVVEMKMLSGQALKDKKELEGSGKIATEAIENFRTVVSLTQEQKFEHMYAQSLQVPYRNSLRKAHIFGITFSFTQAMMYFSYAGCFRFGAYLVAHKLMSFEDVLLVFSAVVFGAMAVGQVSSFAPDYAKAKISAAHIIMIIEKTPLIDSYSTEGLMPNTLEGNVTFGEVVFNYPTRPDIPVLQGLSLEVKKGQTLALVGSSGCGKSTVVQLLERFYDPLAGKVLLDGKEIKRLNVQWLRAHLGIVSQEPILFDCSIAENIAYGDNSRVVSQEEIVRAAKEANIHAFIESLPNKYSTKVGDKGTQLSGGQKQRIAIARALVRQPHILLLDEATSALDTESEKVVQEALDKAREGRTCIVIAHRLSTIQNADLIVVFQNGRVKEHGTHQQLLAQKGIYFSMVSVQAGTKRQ

## COc1cc2c(cc1OC)CN(CCc1ccc(NC(=O)c3cc(OC)c(OC)cc3NC(=O)c3cnc4ccccc4c3)cc1)CC2 [TARIQUIDAR]
  Activity: inhibitor [+]
